According to patent publication US20240327428A1, “Inhibitors of human immunodeficiency virus replication, method of making and method of using thereof” (ASCLETIS BIOSCIENCE CO., LTD., priority 2023, published 2024):
Like-named read-outs stand apart in the source and are kept apart here.

Experiments:
Assay type in all cases: cell-based
MT-4 cells = assay: Cellular toxicity in MT-4 cells (XTT staining); conditions: 6 days incubation, read-out: TC50 (50% reduction in cell viability)
Protocol: (§1) The compounds were evaluated for inhibition of HIV-1IIIB infection and cellular toxicity in MT-4 cells.
(§2) The MT-4 cells and […] used in the HIV-1 inhibition assays were obtained from the AIDS Research and Reference Program (Rockville, MD) and propagated as recommended by the supplier.
(§3) Fifty microliters (50 μL) of MT-4 cells at a density of 1.0×10^4 cells/well in 10% complete RPMI-1640 (10% FBS supplemented with 1% L-glutamine and 1% Penicillin/Streptomycin) media were plated in a 96-well flat bottom plate. One-hundred microliters (100 μL) of each compound at 12 concentrations were added in triplicate followed by 50 μL of HIV-1IIIB at a pre-determined titer. The cultures were incubated for 6 days at 37° C./5% CO2. Following the incubation, the cells were stained with XTT for evaluation of compound efficacy and cellular toxicity, as described below.
(§4) Efficacy and toxicity values for the test materials were derived by measuring the reduction of the tetrazolium dye XTT (2,3-bis(2-methoxy-4-nitro-5-sulfophenyl)-5-[(phenylamino)carbonyl]-2H-tetrazolium hydroxide). XTT in metabolically active cells is metabolized by the mitochondrial enzyme NADPH oxidase to a soluble formazan product. XTT solution was prepared daily as a stock of 1 mg/mL in RPMI-1640 without additives. Phenazine methosulfate (PMS) solution was prepared at 0.15 mg/mL in DPBS and stored in the dark at −20° C. XTT/PMS stock was prepared immediately before use by adding 40 μL of PMS per mL of XTT solution. Fifty μL (50 μL) of XTT/PMS was added to each well of the plate and the plate incubated for 4 hours at 37° C. The 4-hour incubation has been empirically determined to be within the linear response range for XTT dye reduction with the indicated numbers of cells for each assay. The plates were sealed and inverted several times to mix the soluble formazan product and the plate was read at 450 nm (650 nm reference wavelength) with a Molecular Devices SpectraMax Plus 384 96 well plate format spectrophotometer.
(§5) Microsoft Excel 2010 in combination with XLfit4 was used to analyze and graph the data. EC50 (50% inhibition of virus replication), TC50 (50% reduction in cell viability) and a therapeutic index (TC50/EC50) are provided. Raw data for both antiviral activity and toxicity with a graphic representation of the data are provided in a printout summarizing the compound activity.

HIV-1IIIB = assay: Inhibition of HIV-1IIIB infection in MT-4 cells (XTT staining); conditions: HIV-1IIIB in MT-4 cells; for EC50: 6 days incubation, XTT, read-out: EC50 (50% inhibition of virus replication)
Protocol: as §1, §2, §3, §4, §5

[1] = Cellular toxicity in MT-4 cells (XTT staining); conditions: human, 6 days incubation, read-out: TC50 (50% reduction in cell viability)
Protocol: as §1, §2, §3, §4, §5

[2] = Human immunodeficiency virus 1, MT4, 144 h

Row | Structure (SMILES) | CC50 (MT-4 cells) [nM] | Therapeutic Index (TC50/EC50) (HIV-1IIIB) | EC50 (HIV-1IIIB) [nM] | CC50 at 6 days [1] [nM] | EC50 (HIV-1IIIB; [2]) [nM]
1 | CS(=O)(=O)Nc1nn(CC(F)(F)F)c2c(-n3c([C@H](Cc4cc(F)cc(F)c4)NC(=O)Cn4nc(C(F)(F)F)c5c4C(F)(F)[C@@H]4C[C@H]54)nc4ncsc4c3=O)ccc(Cl)c12 (atropisomer, axis not shown) [Compound 31] | > 100 | >384.6 | 0.26 |  | 
2 | Cn1nc(NS(C)(=O)=O)c2c(Cl)ccc(-n3c([C@H](Cc4cc(F)cc(F)c4)NC(=O)Cn4nc(C(F)(F)F)c5c4C(F)(F)[C@@H]4C[C@H]54)nc4sccc4c3=O)c21 (atropisomer, axis not shown) [Compound 33] | > 100 | >294.1 | 0.34 |  | 
3 | Cn1nc(NS(C)(=O)=O)c2c(Cl)ccc(-n3c([C@H](Cc4cc(F)cc(F)c4)NC(=O)Cn4nc(C(F)(F)F)c5c4C(F)(F)[C@@H]4C[C@H]54)nc4ncsc4c3=O)c21 (atropisomer, axis not shown) [Compound 36] | > 100 | >625.0 | 0.16 |  | 
4 | Cn1nc(NS(C)(=O)=O)c2c(Cl)ccc(-n3c([C@H](Cc4cc(F)cc(F)c4)NC(=O)Cn4nc(C(F)(F)F)c5c4C(F)(F)[C@@H]4C[C@H]54)nc4onc(-c5ccccc5)c4c3=O)c21 (atropisomer, axis not shown) [Compound 38] | > 100 |  | > 100 |  | 
5 | Cc1nsc2nc([C@H](Cc3cc(F)cc(F)c3)NC(=O)Cn3nc(C(F)(F)F)c4c3C(F)(F)[C@@H]3C[C@H]43)n(-c3ccc(Cl)c4c(NS(C)(=O)=O)nn(C)c34)c(=O)c12 (atropisomer, axis not shown) [Compound 45] | > 100 | >212.8 | 0.47 |  | 
6 | CS(=O)(=O)Nc1nn(CC(F)(F)F)c2c(-n3c([C@H](Cc4cc(F)cc(F)c4)NC(=O)Cn4nc(C(F)(F)F)c5c4C(F)(F)[C@@H]4C[C@H]54)nc4sccc4c3=O)ccc(Cl)c12 [Compound 1] |  | >312.5 |  | > 100 | 0.32
7 | CS(=O)(=O)Nc1nn(CC(F)(F)F)c2c(-n3c([C@H](Cc4cc(F)cc(F)c4)NC(=O)Cn4nc(C(F)(F)F)c5c4C(F)(F)[C@@H]4C[C@H]54)nc4ncsc4c3=O)ccc(Cl)c12 [Compound 3] |  | >625.0 |  | > 100 | 0.16
8 | Cn1nc(NS(C)(=O)=O)c2c(Cl)ccc(-n3c([C@H](Cc4cc(F)cc(F)c4)NC(=O)Cn4nc(C(F)(F)F)c5c4C(F)(F)C4CC54)nc4nc(S(C)(=O)=O)sc4c3=O)c21 (stereo partly shown) [Compound 29] |  | >2.9 | 34.9 | > 100 | 
9 | Cn1nc(NS(C)(=O)=O)c2c(Cl)ccc(-n3c([C@H](Cc4cc(F)cc(F)c4)NC(=O)Cn4nc(C(F)(F)F)c5c4C(F)(F)C4CC54)nc4nc(S(C)(=O)=O)sc4c3=O)c21 (stereo partly shown) [Compound 30] | > 100 |  | > 100 |  | 
10 | Cn1nc(NS(C)(=O)=O)c2c(Cl)ccc(-n3c([C@H](Cc4cc(F)cc(F)c4)NC(=O)Cn4nc(C(F)(F)F)c5c4C(F)(F)[C@@H]4C[C@H]54)nc4cc(N5CCCC5)sc4c3=O)c21 [Compound 39] |  | >5.4 |  | > 100 | 18.6
11 | Cn1nc(NS(C)(=O)=O)c2c(Cl)ccc(-n3c([C@H](Cc4cc(F)cc(F)c4)NC(=O)Cn4nc(C(F)(F)F)c5c4C(F)(F)[C@@H]4C[C@H]54)nc4sc(CC(F)(F)F)cc4c3=O)c21 [Compound 43] |  | >31.7 |  | > 100 | 3.15
12 | COCCNc1nc2nc([C@H](Cc3cc(F)cc(F)c3)NC(=O)Cn3nc(C(F)(F)F)c4c3C(F)(F)[C@@H]3C[C@H]43)n(-c3ccc(Cl)c4c(NS(C)(=O)=O)nn(C)c34)c(=O)c2s1 [Compound 46] |  | >510.2 |  | > 100 | 0.196
13 | Cn1nc(NS(C)(=O)=O)c2c(Cl)ccc(-n3c([C@H](Cc4cc(F)cc(F)c4)NC(=O)Cn4nc(C(F)(F)F)c5c4C(F)(F)[C@@H]4C[C@H]54)nc4nc(NCCO)sc4c3=O)c21 [Compound 47] |  | >83.3 |  | > 100 | 1.2
14 | Cn1nc(NS(C)(=O)=O)c2c(Cl)ccc(-n3c([C@H](Cc4cc(F)cc(F)c4)NC(=O)Cn4nc(C(F)(F)F)c5c4C(F)(F)[C@@H]4C[C@H]54)nc4nc(NCCC(F)(F)F)sc4c3=O)c21 [Compound 49] |  | >458.7 |  | > 100 | 0.218
15 | CN(CCC(F)(F)F)c1nc2nc([C@H](Cc3cc(F)cc(F)c3)NC(=O)Cn3nc(C(F)(F)F)c4c3C(F)(F)[C@@H]3C[C@H]43)n(-c3ccc(Cl)c4c(NS(C)(=O)=O)nn(C)c34)c(=O)c2s1 [Compound 50] |  | >1136.4 |  | > 100 | 0.088
16 | Cn1nc(NS(C)(=O)=O)c2c(Cl)ccc(-n3c([C@H](Cc4cc(F)cc(F)c4)NC(=O)Cn4nc(C(F)(F)F)c5c4C(F)(F)[C@@H]4C[C@H]54)nc4nc(N5CCOCC5)sc4c3=O)c21 [Compound 51] |  | >518.1 |  | > 100 | 0.193
